Here are results for nine compounds from patent publication US20260184662A1, “COMPOSITE OF ACID AND SALT, AND PREPARATION METHOD THEREFOR” (NANJING NUTRABUILDING BIO-TECH CO., LTD., priority 2022, published 2026).

Where two headings read alike, the source gives them in different places.

Data set [1] is described as follows: Stability of complexes at 30-80° C. The format is physicochemical. The source says:
For R-3-hydroxybutyric acid, potassium R-3-hydroxybutyrate, mixture of R-3-hydroxybutyric acid and potassium R-3-hydroxybutyrate, and R-3-hydroxybutyric acid·potassium R-3-hydroxybutyrate complex of Example 1, […]
For 3-hydroxybutyric acid, potassium 3-hydroxybutyrate, mixture of 3-hydroxybutyric acid and potassium 3-hydroxybutyrate, and 3-hydroxybutyric acid·potassium 3-hydroxybutyrate complex of Example 7, […]
For S-3-hydroxybutyric acid, potassium S-3-hydroxybutyrate, mixture of S-3-hydroxybutyric acid and potassium S-3-hydroxybutyrate, and S-3-hydroxybutyric acid·potassium S-3-hydroxybutyrate complex of Example 13, […]
For R-3-hydroxybutyric acid, calcium R-3-hydroxybutyrate, mixture of R-3-hydroxybutyric acid and calcium R-3-hydroxybutyrate, and R-3-hydroxybutyric acid·calcium R-3-hydroxybutyrate complex of Example 19, […]
For 3-hydroxybutyric acid, calcium 3-hydroxybutyrate, mixture of 3-hydroxybutyric acid and calcium 3-hydroxybutyrate, and 3-hydroxybutyric acid·calcium 3-hydroxybutyrate complex of Example 25, […]
For S-3-hydroxybutyric acid, calcium S-3-hydroxybutyrate, mixture of S-3-hydroxybutyric acid and calcium S-3-hydroxybutyrate, and S-3-hydroxybutyric acid·calcium S-3-hydroxybutyrate complex of Example 31, […]
For R-3-hydroxybutyric acid, magnesium R-3-hydroxybutyrate, mixture of R-3-hydroxybutyric acid and magnesium R-3-hydroxybutyrate, and R-3-hydroxybutyric acid·magnesium R-3-hydroxybutyrate complex of Example 37, […]
For 3-hydroxybutyric acid, magnesium 3-hydroxybutyrate, mixture of 3-hydroxybutyric acid and magnesium 3-hydroxybutyrate, and 3-hydroxybutyric acid·magnesium 3-hydroxybutyrate complex of Example 43, […]
For S-3-hydroxybutyric acid, magnesium S-3-hydroxybutyrate, mixture of S-3-hydroxybutyric acid and magnesium S-3-hydroxybutyrate, and S-3-hydroxybutyric acid·magnesium S-3-hydroxybutyrate complex of Example 49, […]
For R-3-hydroxypentanoic acid, sodium R-3-hydroxypentanoate, mixture of R-3-hydroxypentanoic acid and sodium R-3-hydroxypentanoate, and R-3-hydroxypentanoic acid·sodium R-3-hydroxypentanoate complex of Example 55, […]
For 3-hydroxypentanoic acid, sodium 3-hydroxypentanoate, mixture of 3-hydroxypentanoic acid and sodium 3-hydroxypentanoate, and 3-hydroxypentanoic acid·sodium 3-hydroxypentanoate complex of Example 61, […]
For S-3-hydroxypentanoic acid, sodium S-3-hydroxypentanoate, mixture of S-3-hydroxypentanoic acid and sodium S-3-hydroxypentanoate, and S-3-hydroxypentanoic acid·sodium S-3-hydroxypentanoate complex of Example 67, […]

Data set [2] can be described thus: Determination of moisture contents with KF moisture meter at different time points. The format is physicochemical. As to conditions: temperature 23° C., humidity 92.5%. The source says:
For R-3-hydroxybutyric acid, potassium R-3-hydroxybutyrate, mixture of R-3-hydroxybutyric acid and potassium R-3-hydroxybutyrate, and R-3-hydroxybutyric acid·potassium R-3-hydroxybutyrate complex of Example 1, under a certain condition, KF moisture meter was used to determine the moisture contents at different time points.
For 3-hydroxybutyric acid, potassium 3-hydroxybutyrate, mixture of 3-hydroxybutyric acid and potassium 3-hydroxybutyrate, and 3-hydroxybutyric acid·potassium 3-hydroxybutyrate complex of Example 7, under a certain condition, KF moisture meter was used to determine the moisture contents at different time points.
For S-3-hydroxybutyric acid, potassium S-3-hydroxybutyrate, mixture of S-3-hydroxybutyric acid and potassium S-3-hydroxybutyrate, and S-3-hydroxybutyric acid·potassium S-3-hydroxybutyrate complex of Example 13, under a certain condition, KF moisture meter was used to determine the moisture contents at different time points.
For R-3-hydroxybutyric acid, calcium R-3-hydroxybutyrate, mixture of R-3-hydroxybutyric acid and calcium R-3-hydroxybutyrate, and R-3-hydroxybutyric acid·calcium R-3-hydroxybutyrate complex of Example 19, under a certain condition, KF moisture meter was used to determine the moisture contents at different time points.
For 3-hydroxybutyric acid, calcium 3-hydroxybutyrate, mixture of 3-hydroxybutyric acid and calcium 3-hydroxybutyrate, and 3-hydroxybutyric acid·calcium 3-hydroxybutyrate complex of Example 25, under a certain condition, KF moisture meter was used to determine the moisture contents at different time points.
For S-3-hydroxybutyric acid, calcium S-3-hydroxybutyrate, mixture of S-3-hydroxybutyric acid and calcium S-3-hydroxybutyrate, and S-3-hydroxybutyric acid·calcium S-3-hydroxybutyrate complex of Example 31, under a certain condition, KF moisture meter was used to determine the moisture contents at different time points.
For R-3-hydroxybutyric acid, magnesium R-3-hydroxybutyrate, mixture of R-3-hydroxybutyric acid and magnesium R-3-hydroxybutyrate, and R-3-hydroxybutyric acid·magnesium R-3-hydroxybutyrate complex of Example 37, under a certain condition, KF moisture meter was used to determine the moisture contents at different time points.
For 3-hydroxybutyric acid, magnesium 3-hydroxybutyrate, mixture of 3-hydroxybutyric acid and magnesium 3-hydroxybutyrate, and 3-hydroxybutyric acid·magnesium 3-hydroxy butyrate complex of Example 43, under a certain condition, KF moisture meter was used to determine the moisture contents at different time points.
For S-3-hydroxybutyric acid, magnesium S-3-hydroxybutyrate, mixture of S-3-hydroxybutyric acid and magnesium S-3-hydroxybutyrate, and S-3-hydroxybutyric acid·magnesium S-3-hydroxybutyrate complex of Example 49, under a certain condition, KF moisture meter was used to determine the moisture contents at different time points.
For R-3-hydroxypentanoic acid, sodium R-3-hydroxypentanoate, mixture of R-3-hydroxypentanoic acid and sodium R-3-hydroxypentanoate, and R-3-hydroxypentanoic acid·sodium R-3-hydroxypentanoate complex of Example 55, under a certain condition, KF moisture meter was used to determine the moisture contents at different time points.
For 3-hydroxypentanoic acid, sodium 3-hydroxypentanoate, mixture of 3-hydroxypentanoic acid and sodium 3-hydroxypentanoate, and 3-hydroxypentanoic acid·sodium 3-hydroxypentanoate complex of Example 61, under a certain condition, KF moisture meter was used to determine the moisture contents at different time points.
For S-3-hydroxypentanoic acid, sodium S-3-hydroxypentanoate, mixture of S-3-hydroxypentanoic acid and sodium S-3-hydroxypentanoate, and S-3-hydroxypentanoic acid·sodium S-3-hydroxypentanoate complex of Example 67, under a certain condition, KF moisture meter was used to determine the moisture contents at different time points.

For the compound `CC(O)CC(=O)O.CC(O)CC(=O)[O-].CC(O)CC(=O)[O-].[Mg+2]` (stereo not shown) [3-hydroxybutyric acid·magnesium 3-hydroxybutyrate], the Stability result in data set [1] (30° C.) is “unchanged”; in data set [1] (40° C.) it was “unchanged”; in data set [1] (50° C.), “unchanged”; in data set [1] (60° C.) it was “Unchanged”; in data set [1] (80° C.) it was “melted”. The “moisture content (%)” value in data set [2] (30 min) turned out to be 0.56%; in data set [2] (1 h), 0.97%; in data set [2] (2 h) it was 1.82%; in data set [2] (4 h), 3.26%; in data set [2] (6 h), 4.62%; in data set [2] (7 h) it was 5.57%. Besides, the “moisture content (%)” value was 8.75% in data set [2] (11 h) and 14.68% in data set [2] (22 h).
`C[C@@H](O)CC(=O)O.C[C@@H](O)CC(=O)[O-].C[C@@H](O)CC(=O)[O-].[Mg+2]` [R-3-hydroxybutyric acid·magnesium R-3-hydroxybutyrate]: the Stability result was “unchanged” in data set [1] (30° C.); “unchanged” in data set [1] (40° C.); “unchanged” in data set [1] (50° C.); “unchanged” in data set [1] (60° C.); “melted” in data set [1] (80° C.). Besides, the “moisture content (%)” value in data set [2] (30 min) turned out to be 0.57%; in data set [2] (1 h) it was 0.92%; in data set [2] (2 h), 1.76%; in data set [2] (4 h), 3.16%; in data set [2] (6 h), 4.59%; in data set [2] (7 h), 5.69%. Moreover, the “moisture content (%)” value in data set [2] (11 h) stood at 8.65%; in data set [2] (22 h), 14.45%.
In the case of `CC[C@H](O)CC(=O)O.CC[C@H](O)CC(=O)[O-].[Na+]` [S-3-hydroxypentanoic acid·sodium S-3-hydroxypentanoate], the Stability entry in data set [1] is given as “unchanged”. Also, the “moisture content (%)” value is 0.59% in data set [2] (30 min); 1.15% in data set [2] (1 h); 1.54% in data set [2] (2 h); 2.73% in data set [2] (4 h); 3.99% in data set [2] (6 h); 4.43% in data set [2] (7 h). Also, the “moisture content (%)” value was found to be 7.03% in data set [2] (11 h) and 14.11% in data set [2] (22 h).
`CCC(O)CC(=O)O.CCC(O)CC(=O)[O-].[Na+]` (stereo not shown) [3-hydroxypentanoic acid·sodium 3-hydroxypentanoate]: the Stability entry in data set [1] is given as “unchanged”. In addition, the “moisture content (%)” value in data set [2] (30 min) amounted to 0.51%; in data set [2] (1 h), 0.98%; in data set [2] (2 h) it was 1.71%; in data set [2] (4 h) it was 2.82%; in data set [2] (6 h), 4.16%; in data set [2] (7 h), 4.60%. Besides, the “moisture content (%)” value in data set [2] (11 h) is 7.28%; in data set [2] (22 h), 14.69%.
`CC[C@@H](O)CC(=O)[O-].[Na+]` [Sodium R-3-hydroxypentanoate, sodium R-3-hydroxypentanoate]: the Stability entry in data set [1] is reported as “unchanged”. In addition, the “moisture content (%)” value in data set [2] (30 min) was found to be 0.87%; in data set [2] (1 h), 1.68%; in data set [2] (2 h) it was 2.83%; in data set [2] (4 h), 4.36%; in data set [2] (6 h), 6.13%; in data set [2] (7 h), 6.70%. In addition, the “moisture content (%)” value in data set [2] (11 h) turned out to be 10.57%; in data set [2] (22 h) it was 20.57%.
Regarding `CC[C@@H](O)CC(=O)O.CC[C@@H](O)CC(=O)[O-].[Na+]` [R-3-hydroxypentanoic acid·sodium R-3-hydroxypentanoate], in data set [1], the Stability entry is listed as “unchanged”. In addition, the “moisture content (%)” value in data set [2] (30 min) was 0.45%; in data set [2] (1 h), 0.85%; in data set [2] (2 h), 1.63%; in data set [2] (4 h), 2.72%; in data set [2] (6 h), 4.08%; in data set [2] (7 h), 4.49%. Besides, the “moisture content (%)” value came out at 7.21% in data set [2] (11 h) and 14.54% in data set [2] (22 h).
For `C[C@H](O)CC(=O)O.C[C@H](O)CC(=O)[O-].C[C@H](O)CC(=O)[O-].[Ca+2]` [S-3-hydroxybutyric acid·calcium S-3-hydroxybutyrate], the Stability result in data set [1] (30° C.) was “unchanged”; in data set [1] (40° C.), “unchanged”; in data set [1] (50° C.) it was “unchanged”; in data set [1] (60° C.) it was “unchanged”; in data set [1] (80° C.) it was “melted”. The “moisture content (%)” value in data set [2] (30 min) worked out at 0.52%; in data set [2] (1 h), 0.98%; in data set [2] (2 h), 1.88%; in data set [2] (4 h), 3.05%; in data set [2] (6 h), 4.47%; in data set [2] (7 h), 5.22%. Moreover, the “moisture content (%)” value was determined as 8.41% in data set [2] (11 h) and 13.98% in data set [2] (22 h).
Turning to `CCC(O)CC(=O)[O-].[Na+]` (stereo not shown) [Sodium 3-hydroxypentanoate, sodium 3-hydroxypentanoate], in data set [1], the Stability result is recorded as “unchanged”. Besides, the “moisture content (%)” value is recorded as 0.96% in data set [2] (30 min); 1.83% in data set [2] (1 h); 3.02% in data set [2] (2 h); 4.46% in data set [2] (4 h); 6.28% in data set [2] (6 h); 6.96% in data set [2] (7 h). Besides, the “moisture content (%)” value in data set [2] (11 h) was found to be 10.72%; in data set [2] (22 h) it was 20.79%.
Take magnesium 3-hydroxybutyrate: the Stability result is listed as “unchanged” in data set [1] (30° C.); “unchanged” in data set [1] (40° C.); “Melted” in data set [1] (60° C.); “melted” in data set [1] (70° C.); “melted” in data set [1] (80° C.). In addition, the “moisture content (%)” value in data set [2] (30 min) was determined as 0.81%; in data set [2] (1 h), 1.25%; in data set [2] (2 h), 2.23%; in data set [2] (4 h), 4.12%; in data set [2] (6 h), 6.43%; in data set [2] (7 h) it was 8.14%. For the same compound, the “moisture content (%)” value in data set [2] (11 h) was 12.42%; in data set [2] (22 h), 18.66%.
